Reference: ChEMBL document CHEMBL4130375, “Design, synthesis and biological evaluation of 4-amidobenzimidazole acridine derivatives as dual PARP and Topo inhibitors for cancer therapy” (Eur J Med Chem, 2017)
Active and inactive are the calls of the source. The rule behind the calls is not given here.

Columns and labels:
[1] = test system: MCF7; test: Potency index, ratio of m-AMSA IC50 to compound IC50 for human MCF7 cells; format: functional
[2] = test system: HCC1937; test: Antiproliferative activity against human HCC1937 cells harboring BRCA1 mutant after 72 hrs by MTT assay; format: functional, cell-based; conditions: HCC1937, 72 h
[3] = test system: HCT-116; test: Antiproliferative activity against human HCT116 cells expressing topoisomerase-1 after 72 hrs by MTT assay; format: functional, cell-based; conditions: HCT-116, 72 h
[4] = target: T1, DNA topoisomerase 1 (Homo sapiens) (UniProt P11387); test: Inhibition of human topoisomerase-1 at 2 to 100 uM using supercoiled pBR322 DNA as substrate after 10 to 15 mins by ethidium bromide staining based electrophoresis method
T1 sequence (whole entry): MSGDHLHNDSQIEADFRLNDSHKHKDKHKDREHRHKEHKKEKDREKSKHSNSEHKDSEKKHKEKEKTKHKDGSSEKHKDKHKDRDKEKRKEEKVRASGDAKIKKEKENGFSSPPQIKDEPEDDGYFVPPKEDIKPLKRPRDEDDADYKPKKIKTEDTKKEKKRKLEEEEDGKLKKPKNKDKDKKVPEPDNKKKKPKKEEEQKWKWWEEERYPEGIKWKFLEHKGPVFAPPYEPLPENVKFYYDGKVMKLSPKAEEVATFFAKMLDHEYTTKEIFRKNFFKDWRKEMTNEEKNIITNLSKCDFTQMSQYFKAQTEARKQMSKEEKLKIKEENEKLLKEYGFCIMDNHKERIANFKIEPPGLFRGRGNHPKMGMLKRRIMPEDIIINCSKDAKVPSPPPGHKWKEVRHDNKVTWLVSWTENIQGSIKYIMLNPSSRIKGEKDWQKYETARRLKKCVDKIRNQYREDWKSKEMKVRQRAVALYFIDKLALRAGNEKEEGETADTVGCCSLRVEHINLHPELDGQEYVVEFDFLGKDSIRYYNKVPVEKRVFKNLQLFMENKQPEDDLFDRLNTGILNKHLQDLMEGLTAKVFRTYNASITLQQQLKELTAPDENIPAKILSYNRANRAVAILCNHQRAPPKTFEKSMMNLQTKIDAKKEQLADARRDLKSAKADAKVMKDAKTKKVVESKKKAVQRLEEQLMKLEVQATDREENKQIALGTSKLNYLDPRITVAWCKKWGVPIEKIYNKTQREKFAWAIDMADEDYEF

[5] = test system: MCF7; test: Induction of DNA double strand breaks in human MCF7 cells assessed as increase in 53BP1 level after 24 hrs by Western blot analysis; format: functional, cell-based
[6] = test system: MCF7; test: Induction of apoptosis in human MCF7 cells assessed as early apoptotic cells at 1 uM after 48 hrs by Annexin V-FITC/propidium iodide staining based flow cytometry (reference value: 0.108%); format: functional
[7] = test system: MCF7; test: Induction of apoptosis in human MCF7 cells assessed as late apoptotic cells at 1 uM after 48 hrs by Annexin V-FITC/propidium iodide staining based flow cytometry (reference value: 0%); format: functional
[8] = test system: MCF7; test: Induction of apoptosis in human MCF7 cells assessed as late apoptotic cells at 5 uM after 48 hrs by Annexin V-FITC/propidium iodide staining based flow cytometry (reference value: 0%); format: functional
[9] = test system: MCF7; test: Induction of apoptosis in human MCF7 cells assessed as early apoptotic cells at 10 uM after 48 hrs by Annexin V-FITC/propidium iodide staining based flow cytometry (reference value: 0.108%); format: functional
[10] = test system: MCF7; test: Induction of apoptosis in human MCF7 cells assessed as necrotic cells at 10 uM after 48 hrs by Annexin V-FITC/propidium iodide staining based flow cytometry (reference value: 0%); format: functional
[11] = test system: MCF7; test: Upregulation of cleaved caspase-8 protein expression in human MCF7 cells after 24 hrs by Western blot method; format: functional, cell-based
[12] = test system: MCF7; test: Cell cycle arrest in human MCF7 cells assessed as accumulation at G0/G1 phase at 1 uM after 24 hrs by propidium iodide staining based flow cytometry (reference value: 17.67 +/- 1.25%); format: functional
[13] = test system: MCF7; test: Cell cycle arrest in human MCF7 cells assessed as accumulation at S phase at 1 uM after 24 hrs by propidium iodide staining based flow cytometry (reference value: 59.72 +/- 2.98%); format: functional
[14] = test system: MCF7; test: Cell cycle arrest in human MCF7 cells assessed as accumulation at G2/M phase at 1 uM after 24 hrs by propidium iodide staining based flow cytometry (reference value: 22.61 +/- 1.55%); format: functional
[15] = test system: MCF7; test: Cell cycle arrest in human MCF7 cells assessed as accumulation at S phase at 5 uM after 24 hrs by propidium iodide staining based flow cytometry (reference value: 59.72 +/- 2.98%); format: functional
[16] = test system: MCF7; test: Cell cycle arrest in human MCF7 cells assessed as accumulation at G2/M phase at 5 uM after 24 hrs by propidium iodide staining based flow cytometry (reference value: 22.61 +/- 1.55%); format: functional
[17] = test system: MCF7; test: Cell cycle arrest in human MCF7 cells assessed as accumulation at G2/M phase at 10 uM after 24 hrs by propidium iodide staining based flow cytometry (reference value: 22.61 +/- 1.55%); format: functional
[18] = test system: MCF7; test: Upregulation of p18 protein expression in human MCF7 cells after 24 hrs by Western blot method; format: functional, cell-based
[19] = test system: MCF7; test: Upregulation of p21 protein expression in human MCF7 cells after 24 hrs by Western blot method; format: functional, cell-based
[20] = test system: MCF7; test: Downregulation of CDK2 protein expression in human MCF7 cells up to 10 uM after 24 hrs by Western blot method; format: functional, cell-based
[21] = test system: MCF7; test: Downregulation of CDK6 protein expression in human MCF7 cells up to 10 uM after 24 hrs by Western blot method; format: functional, cell-based
[22] = test system: MCF7; test: Downregulation of CyclinA protein expression in human MCF7 cells up to 10 uM after 24 hrs by Western blot method; format: functional, cell-based
[23] = Intrinsic clearance in human liver microsomes at 1.11 uM preincubated for 5 mins followed by NADPH addition by LC-MS/MS analysis; format: ADME, microsome; conditions: read-out: CLH
[24] = Half life in mouse liver microsomes at 1.11 uM preincubated for 5 mins followed by NADPH addition by LC-MS/MS analysis; format: ADME, microsome
[25] = Intrinsic clearance in mouse liver microsomes at 1.11 uM preincubated for 5 mins followed by NADPH addition by LC-MS/MS analysis; format: ADME, microsome; conditions: read-out: CLH
[26] = Half life in rat liver microsomes at 1.11 uM preincubated for 5 mins followed by NADPH addition by LC-MS/MS analysis; format: ADME, microsome
[27] = target: Cytochrome P450 2C9 (Homo sapiens, UniProt P11712); test: Inhibition of CYP2C9 in human liver microsomes preincubated for 10 mins followed by NADPH/substrate addition measured after 20 mins by LC-MS/MS analysis
Cytochrome P450 2C9, sequence (P11712 whole entry): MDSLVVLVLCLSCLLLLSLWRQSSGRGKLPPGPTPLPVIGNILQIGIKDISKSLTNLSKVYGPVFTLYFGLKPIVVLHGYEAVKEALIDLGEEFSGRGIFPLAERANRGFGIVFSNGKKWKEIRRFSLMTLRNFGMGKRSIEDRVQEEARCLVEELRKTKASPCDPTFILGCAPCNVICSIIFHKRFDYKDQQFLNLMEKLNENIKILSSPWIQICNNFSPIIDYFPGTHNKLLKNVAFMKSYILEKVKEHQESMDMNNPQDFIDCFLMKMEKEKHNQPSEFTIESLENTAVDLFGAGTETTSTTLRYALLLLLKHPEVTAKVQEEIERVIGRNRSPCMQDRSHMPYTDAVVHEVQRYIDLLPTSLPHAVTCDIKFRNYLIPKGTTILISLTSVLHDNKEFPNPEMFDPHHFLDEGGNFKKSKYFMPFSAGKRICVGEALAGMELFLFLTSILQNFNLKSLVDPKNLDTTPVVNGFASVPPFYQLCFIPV

[28] = target: Cytochrome P450 3A4 (Homo sapiens, UniProt P08684); test: Inhibition of CYP3A4 in human liver microsomes preincubated for 10 mins followed by NADPH/substrate addition measured after 20 mins by LC-MS/MS analysis
Cytochrome P450 3A4, sequence (P08684 whole entry): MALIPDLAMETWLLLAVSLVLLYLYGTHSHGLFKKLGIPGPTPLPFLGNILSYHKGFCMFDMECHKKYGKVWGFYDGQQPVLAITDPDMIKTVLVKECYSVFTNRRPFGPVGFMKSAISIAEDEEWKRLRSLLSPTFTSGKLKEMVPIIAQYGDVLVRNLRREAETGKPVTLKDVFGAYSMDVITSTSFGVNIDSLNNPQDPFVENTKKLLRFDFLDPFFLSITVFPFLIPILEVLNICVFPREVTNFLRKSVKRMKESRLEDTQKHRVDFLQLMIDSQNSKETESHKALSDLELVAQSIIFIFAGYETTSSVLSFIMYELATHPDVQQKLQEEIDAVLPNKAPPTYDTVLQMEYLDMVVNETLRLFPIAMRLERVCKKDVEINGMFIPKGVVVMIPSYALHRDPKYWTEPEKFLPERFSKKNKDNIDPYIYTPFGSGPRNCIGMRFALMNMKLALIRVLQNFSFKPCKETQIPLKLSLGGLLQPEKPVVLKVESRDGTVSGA

[29] = target: Cytochrome P450 2C19 (Homo sapiens, UniProt P33261); test: Inhibition of CYP2C19 in human liver microsomes preincubated for 10 mins followed by NADPH/substrate addition measured after 20 mins by LC-MS/MS analysis
Cytochrome P450 2C19, sequence (P33261 whole entry): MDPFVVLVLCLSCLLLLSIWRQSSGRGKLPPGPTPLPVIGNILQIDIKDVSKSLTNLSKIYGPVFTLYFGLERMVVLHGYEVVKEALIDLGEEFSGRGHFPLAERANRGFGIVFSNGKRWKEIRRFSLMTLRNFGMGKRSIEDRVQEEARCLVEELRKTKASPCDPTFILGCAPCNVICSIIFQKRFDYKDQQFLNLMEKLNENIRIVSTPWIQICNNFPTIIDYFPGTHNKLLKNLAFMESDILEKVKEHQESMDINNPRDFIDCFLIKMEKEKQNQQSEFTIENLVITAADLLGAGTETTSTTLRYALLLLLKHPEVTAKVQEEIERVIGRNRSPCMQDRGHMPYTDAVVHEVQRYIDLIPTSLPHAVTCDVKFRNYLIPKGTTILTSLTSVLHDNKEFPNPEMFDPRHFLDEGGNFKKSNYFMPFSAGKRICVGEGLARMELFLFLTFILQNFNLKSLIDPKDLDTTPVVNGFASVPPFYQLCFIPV

For `Cc1cccc2c(Nc3cccc(-c4nc5c(C(N)=O)cccc5[nH]4)c3)c3ccccc3nc12`, the “Ratio IC50” value [1] was 4, the IC50 [2] was 830 nM and the IC50 [3] was 1430 nM. The inhibition [4] was “Active”, the Activity [5] was “Dose-dependent effect” and the Activity [6] was 34.4%. It also gave an Activity [7] of 22.2%, an Activity [8] of 36.4% and an Activity [9] of 9.58%. For the same molecule, the Activity [10] was 0.327%, the Activity [11] was “Dose-dependent effect” and the Activity [12] was 19.96%. For the same molecule, the Activity [13] was 58.27%, the Activity [14] was 21.76% and the Activity [15] was 42.32%. For the same molecule, the Activity [16] was 14.08%, the Activity [17] was 10.83% and the Activity [18] was “Dose-dependent effect”. For the same molecule, the Activity [19] was “Dose-dependent effect”, the Activity [20] was “Active” and the Activity [21] was “Active”. For the same molecule, the Activity [22] was “Active”, the microsomal CLint at 1.11 µM [23] was 35.6 µL/min/mg and the half-life at 1.11 µM [24] was 1.44 h. The microsomal CLint at 1.11 µM [25] was 11.4 µL/min/mg, the half-life at 1.11 µM [26] was 0.58 h and the IC50 [27] was 2200 nM. It also gave an IC50 [28] of 6800 nM and an IC50 [29] greater than 10000 nM.
